Assay results: PubChem BioAssay AID1963442 (Molecular Pharmacology Branch, DTP, NCI, 2024)

System: MPNST complex spheroid with HUVEC/MSC, growth, % test/control
Experiment: Anticancer human tumor MPNST cell line growth inhibition [Asc];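 also: compounds left on spheroids for seven days before reading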
Conditions: for IC50: curve of first compound; for viability, T/C: stronger effect = lower value
How it was run: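 Tumor cells were grown as multicellular spheroids with stromal HUVEC and mesenchymal stem cells and treated singly or in combination. Concentrations fell in half-log steps from the clinical Cmax, or from 10 microM where none was known.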

For `NC1CCC(NC2CC2c2ccccc2)CC1` (configuration not stated) + CNC(C)C(=O)NC1CN(S(=O)(=O)c2cccc(S(=O)(=O)N3CCC4CCC(C(=O)NC(c5ccccc5)c5ccccc5)N4C(=O)C(NC(=O)C(C)NC)C3)c2)CCC2CCC(C(=O)NC(c3ccccc3)c3ccccc3)N2C1=O, the IC50 (second compound 0.00316 µM) was > 100 nM, the IC50 (second compound 0.01 µM) was 83.9 nM and the IC50 (second compound 0.0316 µM) was > 100 nM. The IC50 (second compound 0.1 µM) was > 100 nM, the IC50 (second compound 0.316 µM) was 95.3 nM and the IC50 (second compound 1 µM) was > 100 nM. It also gave a viability, T/C (second compound 0.00316 µM, first compound 0.000316 µM) of 65.4%, a viability, T/C (second compound 0.00316 µM, first compound 0.001 µM) of 91.4% and a viability, T/C (second compound 0.00316 µM, first compound 0.00316 µM) of 51.1%. The viability, T/C (second compound 0.00316 µM, first compound 0.01 µM) was 99.5%, the viability, T/C (second compound 0.00316 µM, first compound 0.0316 µM) was 55% and the viability, T/C (second compound 0.00316 µM, first compound 0.1 µM) was 52.7%. For the same molecule, the viability, T/C (second compound 0.01 µM, first compound 0.000316 µM) was 72.2%, the viability, T/C (second compound 0.01 µM, first compound 0.001 µM) was 74.9% and the viability, T/C (second compound 0.01 µM, first compound 0.00316 µM) was 79.5%. It also gave a viability, T/C (second compound 0.01 µM, first compound 0.01 µM) of 84.7%, a viability, T/C (second compound 0.01 µM, first compound 0.0316 µM) of 62.6% and a viability, T/C (second compound 0.01 µM, first compound 0.1 µM) of 47.7%. The viability, T/C (second compound 0.0316 µM, first compound 0.000316 µM) was 88.5%, the viability, T/C (second compound 0.0316 µM, first compound 0.001 µM) was 63.8% and the viability, T/C (second compound 0.0316 µM, first compound 0.00316 µM) was 70.4%. The viability, T/C (second compound 0.0316 µM, first compound 0.01 µM) was 81.8%, the viability, T/C (second compound 0.0316 µM, first compound 0.0316 µM) was 61.8% and the viability, T/C (second compound 0.0316 µM, first compound 0.1 µM) was 61.6%. For the same molecule, the viability, T/C (second compound 0.1 µM, first compound 0.000316 µM) was 94.8%, the viability, T/C (second compound 0.1 µM, first compound 0.001 µM) was 79.1% and the viability, T/C (second compound 0.1 µM, first compound 0.00316 µM) was 87.3%. It also gave a viability, T/C (second compound 0.1 µM, first compound 0.01 µM) of 61.1%, a viability, T/C (second compound 0.1 µM, first compound 0.0316 µM) of 69.5% and a viability, T/C (second compound 0.1 µM, first compound 0.1 µM) of 54.3%. It also gave a viability, T/C (second compound 0.316 µM, first compound 0.000316 µM) of 83.3%, a viability, T/C (second compound 0.316 µM, first compound 0.001 µM) of 77.2% and a viability, T/C (second compound 0.316 µM, first compound 0.00316 µM) of 69.3%. It also gave a viability, T/C (second compound 0.316 µM, first compound 0.01 µM) of 99.6%, a viability, T/C (second compound 0.316 µM, first compound 0.0316 µM) of 79.6% and a viability, T/C (second compound 0.316 µM, first compound 0.1 µM) of 48.7%. It also gave a viability, T/C (second compound 1 µM, first compound 0.000316 µM) of 92.9%, a viability, T/C (second compound 1 µM, first compound 0.001 µM) of 59.2% and a viability, T/C (second compound 1 µM, first compound 0.00316 µM) of 69.1%. For the same molecule, the viability, T/C (second compound 1 µM, first compound 0.01 µM) was 63.3%, the viability, T/C (second compound 1 µM, first compound 0.0316 µM) was 85.2% and the viability, T/C (second compound 1 µM, first compound 0.1 µM) was 55.7%.
In the case of `Cc1nc(N2CCC3(CC2)COC(C)C3N)c(CO)nc1Sc1ccnc(N)c1Cl` (configuration not stated) + Cc1c(S(C)(=O)=O)c(-c2cc(F)cc(N3CCN(c4ccc(NS(=O)(=O)c5ccc(NC(CCN6CCC(C(=O)OCCCP(=O)(O)O)CC6)CSc6ccccc6)c(S(=O)(=O)C(F)(F)F)c5)cc4)CC3)c2)c(-c2ccc(Cl)cc2)n1C(C)C, the IC50 (second compound 0.1 µM) is reported as > 3000 nM, the IC50 (second compound 0.316 µM) is reported as > 3000 nM and the IC50 (second compound 1 µM) is reported as > 3000 nM. For the same molecule, the IC50 (second compound 3.16 µM) was > 3000 nM, the IC50 (second compound 10 µM) was > 3000 nM and the viability, T/C (second compound 0.1 µM, first compound 0.00949 µM) was 117%. It also gave a viability, T/C (second compound 0.1 µM, first compound 0.03 µM) of 152%, a viability, T/C (second compound 0.1 µM, first compound 0.0949 µM) of 143% and a viability, T/C (second compound 0.1 µM, first compound 0.3 µM) of 121%. For the same molecule, the viability, T/C (second compound 0.1 µM, first compound 0.949 µM) was 104%, the viability, T/C (second compound 0.1 µM, first compound 3 µM) was 112% and the viability, T/C (second compound 0.316 µM, first compound 0.00949 µM) was 130%. The viability, T/C (second compound 0.316 µM, first compound 0.03 µM) was 136%, the viability, T/C (second compound 0.316 µM, first compound 0.0949 µM) was 157% and the viability, T/C (second compound 0.316 µM, first compound 0.3 µM) was 125%. For the same molecule, the viability, T/C (second compound 0.316 µM, first compound 0.949 µM) was 117%, the viability, T/C (second compound 0.316 µM, first compound 3 µM) was 79.5% and the viability, T/C (second compound 1 µM, first compound 0.00949 µM) was 121%. For the same molecule, the viability, T/C (second compound 1 µM, first compound 0.03 µM) was 148%, the viability, T/C (second compound 1 µM, first compound 0.0949 µM) was 126% and the viability, T/C (second compound 1 µM, first compound 0.3 µM) was 135%. For the same molecule, the viability, T/C (second compound 1 µM, first compound 0.949 µM) was 96.2%, the viability, T/C (second compound 1 µM, first compound 3 µM) was 93.6% and the viability, T/C (second compound 3.16 µM, first compound 0.00949 µM) was 136%. The viability, T/C (second compound 3.16 µM, first compound 0.03 µM) was 141%, the viability, T/C (second compound 3.16 µM, first compound 0.0949 µM) was 164% and the viability, T/C (second compound 3.16 µM, first compound 0.3 µM) was 108%. The viability, T/C (second compound 3.16 µM, first compound 0.949 µM) was 117%, the viability, T/C (second compound 3.16 µM, first compound 3 µM) was 88.3% and the viability, T/C (second compound 10 µM, first compound 0.00949 µM) was 175%. The viability, T/C (second compound 10 µM, first compound 0.03 µM) was 159%, the viability, T/C (second compound 10 µM, first compound 0.0949 µM) was 153% and the viability, T/C (second compound 10 µM, first compound 0.3 µM) was 108%. It also gave a viability, T/C (second compound 10 µM, first compound 0.949 µM) of 125% and a viability, T/C (second compound 10 µM, first compound 3 µM) of 94.4%.
For `CCN1CCN(Cc2ccc(Nc3ncc(F)c(-c4cc(F)c5nc(C)n(C(C)C)c5c4)n3)nc2)CC1` + CCN1C(C(=O)NC23CCC(C(=O)O)(CC2)CC3)C(c2cccc(Cl)c2F)C2(C(=O)Nc3cc(Cl)ccc32)C12CCCCC2, the IC50 (second compound 0.03 µM) was > 1000 nM, the IC50 (second compound 0.0949 µM) was > 1000 nM and the IC50 (second compound 0.3 µM) was > 1000 nM. The IC50 (second compound 0.949 µM) was > 1000 nM, the IC50 (second compound 3 µM) was > 1000 nM and the viability, T/C (second compound 0.03 µM, first compound 0.00316 µM) was 107%. For the same molecule, the viability, T/C (second compound 0.03 µM, first compound 0.01 µM) was 109%, the viability, T/C (second compound 0.03 µM, first compound 0.0316 µM) was 88.7% and the viability, T/C (second compound 0.03 µM, first compound 0.1 µM) was 75.3%. For the same molecule, the viability, T/C (second compound 0.03 µM, first compound 0.316 µM) was 64.5%, the viability, T/C (second compound 0.03 µM, first compound 1 µM) was 72.6% and the viability, T/C (second compound 0.0949 µM, first compound 0.00316 µM) was 98.1%. For the same molecule, the viability, T/C (second compound 0.0949 µM, first compound 0.01 µM) was 111%, the viability, T/C (second compound 0.0949 µM, first compound 0.0316 µM) was 104% and the viability, T/C (second compound 0.0949 µM, first compound 0.1 µM) was 106%. It also gave a viability, T/C (second compound 0.0949 µM, first compound 0.316 µM) of 73.9%, a viability, T/C (second compound 0.0949 µM, first compound 1 µM) of 77% and a viability, T/C (second compound 0.3 µM, first compound 0.00316 µM) of 113%. For the same molecule, the viability, T/C (second compound 0.3 µM, first compound 0.01 µM) was 93.9%, the viability, T/C (second compound 0.3 µM, first compound 0.0316 µM) was 87.1% and the viability, T/C (second compound 0.3 µM, first compound 0.1 µM) was 103%. The viability, T/C (second compound 0.3 µM, first compound 0.316 µM) was 115%, the viability, T/C (second compound 0.3 µM, first compound 1 µM) was 90.1% and the viability, T/C (second compound 0.949 µM, first compound 0.00316 µM) was 105%. It also gave a viability, T/C (second compound 0.949 µM, first compound 0.01 µM) of 91.6%, a viability, T/C (second compound 0.949 µM, first compound 0.0316 µM) of 92.1% and a viability, T/C (second compound 0.949 µM, first compound 0.1 µM) of 92.3%. The viability, T/C (second compound 0.949 µM, first compound 0.316 µM) was 90.2%, the viability, T/C (second compound 0.949 µM, first compound 1 µM) was 91.4% and the viability, T/C (second compound 3 µM, first compound 0.00316 µM) was 107%. For the same molecule, the viability, T/C (second compound 3 µM, first compound 0.01 µM) was 92%, the viability, T/C (second compound 3 µM, first compound 0.0316 µM) was 91.9% and the viability, T/C (second compound 3 µM, first compound 0.1 µM) was 76.5%. For the same molecule, the viability, T/C (second compound 3 µM, first compound 0.316 µM) was 89.3% and the viability, T/C (second compound 3 µM, first compound 1 µM) was 85.7%.
